Data: ChEMBL document CHEMBL1201862, “PubChem BioAssay data set” (2004)
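A five-concentration, 48-hour dose response in 96-well plates underlies each endpoint, interpolated linearly between surrounding concentrations. Abbreviation: GI50, concentration required for 50% inhibition of growth.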 Calls of active or inactive are those of the source. Rule as the data show it: active = GI50 up to about 1.1 µM and inactive = higher.

How the values were obtained:
Assay in all cases: inhibition of tumour cell growth, NCI panel, 48 h
786-0 = tested on: 786-0
CCRF-CEM = tested on: CCRF-CEM
HCC 2998 = tested on: HCC 2998
HL-60 = tested on: HL-60
KM12 = tested on: KM12
LOX IMVI = tested on: LOX IMVI
MOLT-4 = tested on: MOLT-4
Malme-3M = tested on: Malme-3M
NCI-H522 = tested on: NCI-H522
OVCAR-8 = tested on: OVCAR-8
SF-268 = tested on: SF-268
SF-295 = tested on: SF-295
SF-539 = tested on: SF-539
SK-MEL-2 = tested on: SK-MEL-2
SN12C = tested on: SN12C

Measured: GI50

COc1ccc(-c2onc(-c3c(C)cc(C)cc3C)c2C2=NCCCN2)cc1
inactive: 786-0 31.8 µM | CCRF-CEM 35 µM | HCC 2998 > 100 µM | HL-60 15.1 µM | KM12 46.3 µM | LOX IMVI 43.3 µM | MOLT-4 41 µM | Malme-3M 41.9 µM | NCI-H522 14.3 µM | OVCAR-8 58.9 µM | SF-268 36.7 µM | SF-295 22.8 µM | SF-539 21.6 µM | SK-MEL-2 36.1 µM | SN12C 50.8 µM

O=C1[C@@H]2C(c3ccccc3[N+](=O)[O-])=NO[C@@H]2C(=O)N1c1ccc(Cc2ccc(N3C(=O)[C@H]4C(c5ccccc5[N+](=O)[O-])=NO[C@H]4C3=O)cc2)cc1
inactive: 786-0 > 100 µM | CCRF-CEM > 100 µM | HCC 2998 > 100 µM | KM12 > 100 µM | LOX IMVI > 100 µM | MOLT-4 > 100 µM | Malme-3M > 100 µM | NCI-H522 > 100 µM | OVCAR-8 > 100 µM | SF-268 > 100 µM | SF-295 > 100 µM | SF-539 > 100 µM | SN12C > 100 µM

COc1ccc(CC(=O)NCCc2ccc(OC)c(OC)c2OC)cc1
inactive: 786-0 41.6 µM | CCRF-CEM > 100 µM | HCC 2998 > 100 µM | KM12 > 100 µM | MOLT-4 > 100 µM | Malme-3M > 100 µM | NCI-H522 > 100 µM | OVCAR-8 > 100 µM | SF-268 > 100 µM | SF-295 > 100 µM | SF-539 16.4 µM | SK-MEL-2 > 100 µM | SN12C > 100 µM

CCOc1ccc(/N=C(/NC(=O)c2ccccc2)SC)cc1
inactive: 786-0 > 100 µM | CCRF-CEM 87.1 µM | HCC 2998 > 100 µM | HL-60 > 100 µM | LOX IMVI > 100 µM | MOLT-4 > 100 µM | Malme-3M > 100 µM | OVCAR-8 > 100 µM | SF-268 > 100 µM | SF-295 > 100 µM | SF-539 > 100 µM | SK-MEL-2 > 100 µM | SN12C > 100 µM

O=C1OC(c2cccc(C(F)(F)F)c2)c2ccc3ccccc3c21 (centres undefined)
inactive: 786-0 > 10 µM | CCRF-CEM 9.06 µM | HCC 2998 > 10 µM | HL-60 5.5 µM | KM12 > 10 µM | LOX IMVI 8.45 µM | MOLT-4 6.31 µM | Malme-3M > 10 µM | NCI-H522 > 10 µM | OVCAR-8 > 10 µM | SF-268 > 10 µM | SF-295 12.2 µM | SF-539 > 100 µM | SK-MEL-2 > 10 µM | SN12C > 10 µM

O=[N+]([O-])c1ccc(/C=N/C2CCCCC2)cc1
inactive: 786-0 > 100 µM | CCRF-CEM > 100 µM | HCC 2998 > 100 µM | HL-60 > 100 µM | KM12 > 100 µM | LOX IMVI > 100 µM | MOLT-4 > 100 µM | Malme-3M > 100 µM | OVCAR-8 > 100 µM | SF-268 > 100 µM | SF-295 > 100 µM | SF-539 > 100 µM | SK-MEL-2 > 100 µM | SN12C > 100 µM

O=S1(=O)OCCOS(=O)(=O)C1(Cl)Cl
inactive: 786-0 61.9 µM | CCRF-CEM 54.2 µM | HCC 2998 > 100 µM | HL-60 42 µM | KM12 > 100 µM | LOX IMVI 61.4 µM | MOLT-4 42.2 µM | Malme-3M > 100 µM | NCI-H522 > 100 µM | OVCAR-8 > 100 µM | SF-268 43.5 µM | SF-295 46 µM | SF-539 > 100 µM | SK-MEL-2 > 100 µM | SN12C > 100 µM

COc1ccc(-c2nc(N)nc(-c3cc(C)ccc3O)c2Cl)cc1
inactive: 786-0 45.4 µM | CCRF-CEM > 100 µM | HCC 2998 > 100 µM | HL-60 > 100 µM | KM12 65.5 µM | LOX IMVI 58.9 µM | MOLT-4 > 100 µM | Malme-3M 31.8 µM | NCI-H522 26.2 µM | OVCAR-8 43.2 µM | SF-268 26.4 µM | SF-295 60.1 µM | SF-539 31.7 µM | SN12C 76.7 µM

CCCCCCC(/C=N/O)C(C)(O)CCC (centres undefined)
inactive: 786-0 > 100 µM | CCRF-CEM > 100 µM | HCC 2998 > 100 µM | HL-60 67.9 µM | KM12 > 100 µM | LOX IMVI > 100 µM | MOLT-4 61.7 µM | Malme-3M > 100 µM | NCI-H522 37.7 µM | OVCAR-8 > 100 µM | SF-268 > 100 µM | SF-295 > 100 µM | SF-539 > 100 µM | SK-MEL-2 > 100 µM | SN12C > 100 µM

CCOc1ccc(NC(=O)CC2SC(Nc3ccc(C)cc3C)=NC2=O)cc1 (centres undefined)
inactive: 786-0 > 100 µM | CCRF-CEM 29.2 µM | HCC 2998 > 100 µM | HL-60 43.8 µM | LOX IMVI > 100 µM | MOLT-4 21.4 µM | Malme-3M > 100 µM | NCI-H522 5.38 µM | OVCAR-8 89.1 µM | SF-268 43.6 µM | SF-295 > 100 µM | SF-539 26.7 µM | SK-MEL-2 > 100 µM | SN12C > 100 µM

COc1cc(/C=N\O[Si](C)(C)C(C)(C)C)ccc1O[Si](C)(C)C(C)(C)C
inactive: 786-0 32.4 µM | CCRF-CEM 42.9 µM | HCC 2998 24.5 µM | HL-60 37.8 µM | KM12 83.6 µM | LOX IMVI 26.6 µM | MOLT-4 37.8 µM | Malme-3M > 100 µM | OVCAR-8 64.1 µM | SF-268 67.9 µM | SF-295 78.5 µM | SF-539 41.7 µM | SK-MEL-2 88.9 µM | SN12C > 100 µM

CCOC(=O)CC1(C(=O)OCC)c2[nH]c3ccccc3c2CCN1Cc1ccccc1 (centres undefined)
inactive: 786-0 16.9 µM | CCRF-CEM 23.7 µM | HCC 2998 13.7 µM | HL-60 21.6 µM | KM12 17.7 µM | LOX IMVI 18.5 µM | MOLT-4 13.5 µM | Malme-3M 17.8 µM | NCI-H522 13.2 µM | OVCAR-8 23.7 µM | SF-268 20.2 µM | SF-295 16.8 µM | SF-539 19.9 µM | SK-MEL-2 17.9 µM | SN12C 14.2 µM

Cn1ccc2c(C(=O)c3ccccc3)cccc2c1=O
inactive: 786-0 39.3 µM | CCRF-CEM 32.7 µM | HCC 2998 89.5 µM | HL-60 24.9 µM | KM12 42.9 µM | LOX IMVI 54.3 µM | MOLT-4 38 µM | Malme-3M 45.4 µM | NCI-H522 21.3 µM | OVCAR-8 56 µM | SF-268 97.7 µM | SF-295 20.7 µM | SF-539 29.6 µM | SK-MEL-2 57.7 µM | SN12C 59.2 µM

CN(C)[C@@H]1C(O)=C(C(=O)NCNCCCC(=O)O)C(=O)[C@@]2(O)C(O)=C3C(=O)c4c(O)cccc4[C@@](C)(O)[C@H]3C[C@@H]12
inactive: 786-0 > 100 µM | CCRF-CEM > 100 µM | HCC 2998 > 100 µM | HL-60 > 100 µM | KM12 > 100 µM | LOX IMVI > 100 µM | MOLT-4 > 100 µM | NCI-H522 > 100 µM | OVCAR-8 > 100 µM | SF-268 > 100 µM | SF-295 > 100 µM | SF-539 > 100 µM | SK-MEL-2 > 100 µM | SN12C > 100 µM
